PubChem BioAssay AID248 (DTP/NCI, 2004)
“And” between values parts separate entries of the source, which are not always exact repeats. Equal entries are not always repeated. Toxic doses and inconclusive results are not listed. Rule as the data show it: active = T/C of 150% or more; inactive = T/C below 125%.

System: L1210 leukemia ip in BDF1 mice, survival T/C
Assay: NCI In Vivo Anticancer Drug Screen. Data for tumor model L1210 Leukemia (intraperitoneal) in B6D2F1 (BDF1) mice
Settings: higher = longer survival
Summary of the method: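 Ratio derived from survival: compound-dosed mice over vehicle-dosed mice, all bearing a transplantable tumor.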

[1] = endpoint: mean survival time, dose: 100.0 mg/kg/injection, schedule: Q01DX009 (ip), vehicle: Klucel (hydroxypropylcellulose) (HPC)
[2] = endpoint: mean survival time, dose: 200.0 mg/kg/injection, schedule: Q01DX009 (ip), vehicle: Klucel (hydroxypropylcellulose) (HPC)
[3] = endpoint: mean survival time, dose: 400.0 mg/kg/injection, schedule: Q01DX009 (ip), vehicle: Klucel (hydroxypropylcellulose) (HPC)

Measured: T/C

CC(=O)NO
inactive: endpoint: mean survival time, dose: 100.0 mg/kg/injection, schedule: Q04DX002 (ip), vehicle: saline 102 % of control | endpoint: mean survival time, dose: 200.0 mg/kg/injection, schedule: Q04DX002 (ip), vehicle: saline 112 % of control | endpoint: mean survival time, dose: 400.0 mg/kg/injection, schedule: Q04DX002 (ip), vehicle: saline 108 % of control

COC1=CC(=O)C2=C(C1=O)C1(C)CCCC(C)(COC(C)=O)C1CC2 (stereo unspecified)
inactive: endpoint: mean survival time, dose: 200.0 mg/kg/injection, schedule: Q01DX001 (ip), vehicle: carboxymethylcellulose (CMC) 95 % of control | endpoint: mean survival time, dose: 400.0 mg/kg/injection, schedule: Q01DX001 (ip), vehicle: carboxymethylcellulose (CMC) 88 % of control

CCCCCCCCCCCC(=O)OCC1(C)COC(c2ccccc2)=N1 (stereo unspecified)
inactive: endpoint: mean survival time, dose: 100.0 mg/kg/injection, schedule: Q01DX001 (ip), vehicle: saline with Tween-80 97 % of control | endpoint: mean survival time, dose: 200.0 mg/kg/injection, schedule: Q01DX001 (ip), vehicle: saline with Tween-80 104 % of control | endpoint: mean survival time, dose: 400.0 mg/kg/injection, schedule: Q01DX001 (ip), vehicle: saline with Tween-80 104 % of control

CCCCCNc1ccc(C(=O)O)cc1
inactive: endpoint: mean survival time, dose: 37.5 mg/kg/injection, schedule: Q01DX009 (ip), vehicle: saline 100 % of control | endpoint: mean survival time, dose: 75.0 mg/kg/injection, schedule: Q01DX001 (ip), vehicle: acetone 88 % of control | endpoint: mean survival time, dose: 75.0 mg/kg/injection, schedule: Q01DX009 (ip), vehicle: saline 95 % of control | endpoint: mean survival time, dose: 75.0 mg/kg/injection, schedule: Q04DX003 (ip), vehicle: saline 100 % of control | endpoint: mean survival time, dose: 150.0 mg/kg/injection, schedule: Q01DX001 (ip), vehicle: acetone 96 % of control | endpoint: mean survival time, dose: 150.0 mg/kg/injection, schedule: Q01DX009 (ip), vehicle: saline 92 % of control | endpoint: mean survival time, dose: 150.0 mg/kg/injection, schedule: Q04DX003 (ip), vehicle: saline 97 % of control | endpoint: mean survival time, dose: 300.0 mg/kg/injection, schedule: Q01DX001 (ip), vehicle: acetone 102 % of control | endpoint: mean survival time, dose: 300.0 mg/kg/injection, schedule: Q04DX003 (ip), vehicle: saline 97 % of control

C=CSCCCCCCCC
inactive: endpoint: mean survival time, dose: 100.0 mg/kg/injection, schedule: Q04DX003 (ip), vehicle: other 103 % of control | endpoint: mean survival time, dose: 200.0 mg/kg/injection, schedule: Q04DX003 (ip), vehicle: other 97 % of control | endpoint: mean survival time, dose: 400.0 mg/kg/injection, schedule: Q04DX003 (ip), vehicle: other 97 % of control

Cc1[nH]c2ccccc2c1C1Cc2ccccc2N1 (stereo unspecified)
inactive: endpoint: mean survival time, dose: 100.0 mg/kg/injection, schedule: Q01DX001 (ip), vehicle: other 97 % of control and 103 % of control | endpoint: mean survival time, dose: 100.0 mg/kg/injection, schedule: Q01DX009 (ip), vehicle: other 101 % of control | endpoint: mean survival time, dose: 200.0 mg/kg/injection, schedule: Q01DX001 (ip), vehicle: other 100 % of control and 90 % of control | endpoint: mean survival time, dose: 200.0 mg/kg/injection, schedule: Q01DX009 (ip), vehicle: other 101 % of control | endpoint: mean survival time, dose: 400.0 mg/kg/injection, schedule: Q01DX001 (ip), vehicle: other 94 % of control | endpoint: mean survival time, dose: 400.0 mg/kg/injection, schedule: Q01DX009 (ip), vehicle: other 107 % of control

Nc1ccc(C(=O)N/N=C/C=C/c2ccccc2)cc1
inactive: endpoint: mean survival time, dose: 100.0 mg/kg/injection, schedule: Q04DX002 (ip), vehicle: Klucel (hydroxypropylcellulose) (HPC) 105 % of control | endpoint: mean survival time, dose: 200.0 mg/kg/injection, schedule: Q04DX002 (ip), vehicle: Klucel (hydroxypropylcellulose) (HPC) 96 % of control | endpoint: mean survival time, dose: 400.0 mg/kg/injection, schedule: Q04DX002 (ip), vehicle: Klucel (hydroxypropylcellulose) (HPC) 99 % of control

O=C1c2ccccc2C(=O)N1CN1CCC(CCCC2CCN(CN3C(=O)c4ccccc4C3=O)CC2)CC1
inactive: endpoint: mean survival time, dose: 100.0 mg/kg/injection, schedule: Q04DX003 (ip), vehicle: saline with Tween-80 92 % of control

CC(=O)O[C@]1(C(C)=O)CC[C@H]2[C@@H]3C[C@H](C)C4=CC(=O)CC[C@]4(C)[C@H]3CC[C@@]21C
inactive: endpoint: mean survival time, dose: 50.0 mg/kg/injection, schedule: Q01DX009 (ip), vehicle: Klucel (hydroxypropylcellulose) (HPC) 109 % of control | endpoint: mean survival time, dose: 100.0 mg/kg/injection, schedule: Q01DX001 (sc), vehicle: steriod suspending solution 102 % of control | [1] 101 % of control | endpoint: mean survival time, dose: 200.0 mg/kg/injection, schedule: Q01DX001 (sc), vehicle: steriod suspending solution 108 % of control | [2] 103 % of control | endpoint: mean survival time, dose: 200.0 mg/kg/injection, schedule: Q01DX009 (sc), vehicle: steriod suspending solution 91 % of control | endpoint: mean survival time, dose: 400.0 mg/kg/injection, schedule: Q01DX001 (sc), vehicle: steriod suspending solution 102 % of control | [3] 100 % of control | endpoint: mean survival time, dose: 400.0 mg/kg/injection, schedule: Q01DX009 (sc), vehicle: steriod suspending solution 94 % of control | endpoint: mean survival time, dose: 600.0 mg/kg/injection, schedule: Q01DX009 (sc), vehicle: steriod suspending solution 96 % of control | endpoint: mean survival time, dose: 800.0 mg/kg/injection, schedule: Q01DX009 (ip), vehicle: Klucel (hydroxypropylcellulose) (HPC) 104 % of control | endpoint: mean survival time, dose: 800.0 mg/kg/injection, schedule: Q01DX009 (sc), vehicle: steriod suspending solution 91 % of control | endpoint: mean survival time, dose: 1000.0 mg/kg/injection, schedule: Q01DX009 (sc), vehicle: steriod suspending solution 94 % of control | endpoint: median survival time, dose: 16.0 mg/kg/injection, schedule: Q03HX008 (ip), vehicle: Klucel (hydroxypropylcellulose) (HPC) 97 % of control | endpoint: median survival time, dose: 16.0 mg/kg/injection, schedule: Q03HX016 (ip), vehicle: Klucel (hydroxypropylcellulose) (HPC) 94 % of control | endpoint: median survival time, dose: 16.0 mg/kg/injection, schedule: Q03HX024 (ip), vehicle: Klucel (hydroxypropylcellulose) (HPC) 96 % of control | endpoint: median survival time, dose: 32.0 mg/kg/injection, schedule: Q03HX008 (ip), vehicle: Klucel (hydroxypropylcellulose) (HPC) 96 % of control | endpoint: median survival time, dose: 32.0 mg/kg/injection, schedule: Q03HX016 (ip), vehicle: Klucel (hydroxypropylcellulose) (HPC) 94 % of control | endpoint: median survival time, dose: 32.0 mg/kg/injection, schedule: Q03HX024 (ip), vehicle: Klucel (hydroxypropylcellulose) (HPC) 95 % of control | endpoint: median survival time, dose: 64.0 mg/kg/injection, schedule: Q01DX009 (ip), vehicle: Klucel (hydroxypropylcellulose) (HPC) 107 % of control | endpoint: median survival time, dose: 64.0 mg/kg/injection, schedule: Q03HX008 (ip), vehicle: Klucel (hydroxypropylcellulose) (HPC) 93 % of control | endpoint: median survival time, dose: 64.0 mg/kg/injection, schedule: Q03HX016 (ip), vehicle: Klucel (hydroxypropylcellulose) (HPC) 94 % of control | endpoint: median survival time, dose: 64.0 mg/kg/injection, schedule: Q03HX024 (ip), vehicle: Klucel (hydroxypropylcellulose) (HPC) 93 % of control | endpoint: median survival time, dose: 128.0 mg/kg/injection, schedule: Q01DX001 (ip), vehicle: Klucel (hydroxypropylcellulose) (HPC) 100 % of control | endpoint: median survival time, dose: 128.0 mg/kg/injection, schedule: Q01DX009 (ip), vehicle: Klucel (hydroxypropylcellulose) (HPC) 105 % of control | endpoint: median survival time, dose: 128.0 mg/kg/injection, schedule: Q03HX008 (ip), vehicle: Klucel (hydroxypropylcellulose) (HPC) 93 % of control | endpoint: median survival time, dose: 128.0 mg/kg/injection, schedule: Q03HX016 (ip), vehicle: Klucel (hydroxypropylcellulose) (HPC) 93 % of control | endpoint: median survival time, dose: 128.0 mg/kg/injection, schedule: Q04DX003 (ip), vehicle: Klucel (hydroxypropylcellulose) (HPC) 102 % of control | endpoint: median survival time, dose: 128.0 mg/kg/injection, schedule: Q08DX002 (ip), vehicle: Klucel (hydroxypropylcellulose) (HPC) 100 % of control | endpoint: median survival time, dose: 256.0 mg/kg/injection, schedule: Q01DX001 (ip), vehicle: Klucel (hydroxypropylcellulose) (HPC) 96 % of control | endpoint: median survival time, dose: 256.0 mg/kg/injection, schedule: Q01DX009 (ip), vehicle: Klucel (hydroxypropylcellulose) (HPC) 104 % of control | endpoint: median survival time, dose: 256.0 mg/kg/injection, schedule: Q04DX003 (ip), vehicle: Klucel (hydroxypropylcellulose) (HPC) 105 % of control | endpoint: median survival time, dose: 256.0 mg/kg/injection, schedule: Q08DX002 (ip), vehicle: Klucel (hydroxypropylcellulose) (HPC) 108 % of control | endpoint: median survival time, dose: 512.0 mg/kg/injection, schedule: Q01DX001 (ip), vehicle: Klucel (hydroxypropylcellulose) (HPC) 100 % of control | endpoint: median survival time, dose: 512.0 mg/kg/injection, schedule: Q01DX009 (ip), vehicle: Klucel (hydroxypropylcellulose) (HPC) 100 % of control | endpoint: median survival time, dose: 512.0 mg/kg/injection, schedule: Q04DX003 (ip), vehicle: Klucel (hydroxypropylcellulose) (HPC) 98 % of control | endpoint: median survival time, dose: 512.0 mg/kg/injection, schedule: Q08DX002 (ip), vehicle: Klucel (hydroxypropylcellulose) (HPC) 100 % of control | endpoint: median survival time, dose: 1024.0 mg/kg/injection, schedule: Q01DX001 (ip), vehicle: Klucel (hydroxypropylcellulose) (HPC) 102 % of control | endpoint: median survival time, dose: 1024.0 mg/kg/injection, schedule: Q01DX009 (ip), vehicle: Klucel (hydroxypropylcellulose) (HPC) 105 % of control | endpoint: median survival time, dose: 1024.0 mg/kg/injection, schedule: Q04DX003 (ip), vehicle: Klucel (hydroxypropylcellulose) (HPC) 114 % of control | endpoint: median survival time, dose: 1024.0 mg/kg/injection, schedule: Q08DX002 (ip), vehicle: Klucel (hydroxypropylcellulose) (HPC) 97 % of control | endpoint: median survival time, dose: 2048.0 mg/kg/injection, schedule: Q01DX001 (ip), vehicle: Klucel (hydroxypropylcellulose) (HPC) 92 % of control | endpoint: median survival time, dose: 2048.0 mg/kg/injection, schedule: Q08DX002 (ip), vehicle: Klucel (hydroxypropylcellulose) (HPC) 95 % of control

CCN(CCC#N)C(=S)Nc1cccc2ccccc12
inactive: [1] 102 % of control | [2] 101 % of control | [3] 104 % of control
